Results from patent US8080522B2, “Polyethlene glycol modifications of thymosin alpha-1” (Institute of Pharmacology and Toxicology Academy of …, priority 2005, dated 2011).
Read-outs that look alike come from different tables or passages of the source. Where no end group is shown, it is not given here.

Experiments:
[1] = Half-life in liver homogenate (HPLC); assay type: in vitro ADME; conditions: 37° C., sample 0.4 mg/mL or 0.8 mg/mL; for half-life: read-out: t1/2 in liver homogenate (converted)
Method: Experimental method: Prepare 0.4 mg/mL or 0.8 mg/mL sample aqueous solution in centrifuge tube, adding 50 μL liver homogenate. Then incubate for different time in 37° C. water bath. Terminate the reaction and precipitate liver homogenate protein by heating the mixture in boiling water for 5 minutes. Centrifuge it (10000 rpm) for 10 minutes. Analyze the supernatant by HPLC. The data was statistically analyzed by Origin Prof. 5.0.
HPLC: Column temperature: 25° C.; Flow rate 1.0 mL/min; Detection wavelength: 200 nm; Mobile phase A: 0.1% TFA/H2O; Mobile phase B: 0.1% TFA/70% CH3CN.

spleen cell = experiment: Interferon-γ production of spleen cells stimulated by Con A (double antibody sandwich ELISA); assay type: cell-based; conditions: for Concentration of IFN-γ: Con A 0.5 μg/mL, 24 hours, n = 3; for Enhancement percentage: versus Con A alone
Method: Prepare spleen cell suspension in sterile condition. Adjust cell concentration to 5×10^6 cell/mL by adding RPMI-1640 culture with 20% bovine serum. Add 0.5 mL cell suspension, 0.25 mL Con A (final concentration is 0.5 μg/mL) and 0.25 mL samples with different concentrations in 24-well plate; and add RPMI-1640 culture in control wells. Incubate the plates in a 5% CO2 chamber at 37° C. for 24 hours. Centrifuge and collect supernatant, test the content of IFN-γ in supernatant by double antibody sandwich ELISA. The protocol is according to the instruction on ELISA kit.

[2] = Plasma concentration / pharmacokinetics in mouse (competitive ELISA); assay type: in vivo; conditions: 300 μg per mouse, injected peritoneally, parameters in 24 h
Method: Coating antigen: Dilute Tα1 detection antigen stock solution to a final concentration of 2 μg/mL with coating solution, and add it into the wells of ELISA plate for 0.1 mL per well, and incubate at 4° C. for 5 days. Then wash the ELISA plate 3 times with washing buffer, each 0.2 mL/well and 3 min/time. Add 0.2 mL blocking buffer to each well, incubate for 1.5 hours at 37° C., wash plate 2 times by washing buffer, and spin dried.
Sample preparation: Weight sample accurately, dissolve it in saline to a concentration of 1.5 mg/mL. Administrate 0.2 Ml by injection to each mouse peritoneally. Collect blood sample in 3 min, 20 min, 40 min, 1 h, 2 h, 3 h, 6 h, 8 h, 12 h, and 24 h. Collect serum by centrifuge the blood samples for 5 minutes at 10000 rpm, stored at −20° C. in a freezer. o prepare test sample, […] was added by 0.1 mL 1:1500 rabbit anti-Tα1 serum (final concentration is 1:6000), and 0.2 mL CD-1® mouse serum, and […]. Prepare blank control at the same time. Total volume is 0.4 mL. Incubate for 2 hours at 37° C. To prepare standard sample, Tα1 0.1 mL with different concentrations from 0.0004 to 400 μg/mL was added by 0.1 mL 1:1500 rabbit anti-Tα1 serum (final concentration is 1:6000), and 0.2 mL CD-1® mouse serum. Prepare blank control at the same time. Total volume is 0.4 mL. Incubate for 2 hours at 37° C.
Sample Testing Add the prepared test sample and standard sample to ELISA plate, 0.1 mL/well, reacting for 1 hour in 37° C. chamber. Wash the plates 3 times, spin dryed. Add substrate 0.1 mL/well for 10 minutes. Add 2 mol/L H2SO4 0.05 mL to each well to terminate the reaction. Measure the OD value at 450 nm. Plot the standard curve with the concentration of Tα1 standard sample as abscissa and OD value as vertical coordinate. Calculate the content of test sample according to this standard curve.

[3] = system: T lymphocyte (spleen cell); experiment: T lymphocyte proliferation stimulated by Con A (3H-TdR incorporation); assay type: cell-based, mouse; conditions: for 3H-TdR incorporation (cpm, x ± SD): Con A 0.5 μg/mL, 72 hours, n = 4; for Enhancement percentage: versus Con A alone
Method: Sacrifice mouse by draining artery blood, remove spleen in sterile condition, and make it to spleen cell suspension. After red blood cell lysis, wash for 3 times, and stain with Trypan Blue to count the living cells. The amount of living cells should be more than 95%. Dilute the cell concentration to 5×10^6 cell/mL by adding RPMI-1640 culture with 10% bovine serum. Add spleen cell suspension to a sterilized 96-well plate for 100 μL per well. The total amount is 200 μL per well (including 50 μL Con A and 50 μL medicament). Each sample concentration is repeated fro 3-4 wells. Incubate the plate in a 5% CO2 chamber for 72 hours, add 10 μci/mL ^3H-TdR 20 μL per well 16 hours before termination of the incubation, giving rise to a final concentration of 1.0 μci (37.0 KBq)/mL. Collect cells on filter membrane by using Herveste 96 cell harvester, dried in 80° C. oven for 20 minutes or dried in air. Put the dried filter membrane into 1450-423 microBeta sample bag, add scintillation liquid, and measure radioactivity (cpm) in Perkin Elmer MicroBeta Trilux 1450 Scintillation Counter.

[4] = serum, ip, 300 ug/animal, n = 3, read-out: Cmax
[5] = serum, ip, 300 ug/animal, n = 3, read-out: Tmax

Question: For “Ac-[Cys^5(mPEG5000-MAL)]Tα1 (Ac-SDAAC(mPEG5000‑maleimide)DTSSEITTKDLKEKKEVVEEAEN; UniProt P06454 2-29, looked up, variant V5C) [BMJB005]”, which “t1/2 in liver homogenate” value [1] is on record?
Answer: Its value is 10.42 days.

Question: What does the source list for “Ac-[Cys^16(mPEG5000-MAL)]Tα1 (Ac-SDAAVDTSSEITTKDC(mPEG5000‑maleimide)KEKKEVVEEAEN; UniProt P06454 2-29, looked up, variant L16C) [BMJB016]”?
Answer: Concentration of IFN-γ (spleen cell; Table 1-1, sample 1 μg/mL): 1426.8 ± 36.8 pg/mL; Enhancement percentage (spleen cell; Table 1-1, sample 1 μg/mL): +89.8%; Concentration of IFN-γ (spleen cell; Table 1-1, sample 10 μg/mL): 1295.7 ± 165.9 pg/mL; Enhancement percentage (spleen cell; Table 1-1, sample 10 μg/mL): +72.4%; Concentration of IFN-γ (spleen cell; Table 1-1, sample 100 μg/mL): 455.5 ± 79.3**↓ pg/mL; Enhancement percentage (spleen cell; Table 1-1, sample 100 μg/mL): −39.4%; AUC ([2]; n = 3): 120000 ng·h/mL; Cmax ([2]; n = 3): 6289 ng/mL; Tmax ([2]; n = 3): 360 min; 3H-TdR incorporation (cpm, x ± SD) ([3]; Table 2-1, sample 10 μg/mL): 21697 ± 3489 cpm; Enhancement percentage ([3]; Table 2-1, sample 10 μg/mL): +60.9%; 3H-TdR incorporation (cpm, x ± SD) ([3]; Table 2-1, sample 50 μg/mL): 22584 ± 1463 cpm; Enhancement percentage ([3]; Table 2-1, sample 50 μg/mL): +67.4%; 3H-TdR incorporation (cpm, x ± SD) ([3]; Table 2-1, sample 100 μg/mL): 20708 ± 1211 cpm; Enhancement percentage ([3]; Table 2-1, sample 100 μg/mL): +53.5%

Question: What does the source list for “Ac-CSDAAVDTSSEITTKDLKEKKEVVEEAEN-OH [BMJBT008]”?
Answer: Concentration of IFN-γ (spleen cell; Table 1-3, sample 1 μg/mL): 4323.8 ± 187.0 pg/mL; Enhancement percentage (spleen cell; Table 1-3, sample 1 μg/mL): +41.6%; Concentration of IFN-γ (spleen cell; Table 1-3, sample 10 μg/mL): 3115.0 ± 195.8 pg/mL; Enhancement percentage (spleen cell; Table 1-3, sample 10 μg/mL): +2.0%; Concentration of IFN-γ (spleen cell; Table 1-3, sample 100 μg/mL): 2975.5 ± 182.6 pg/mL; Enhancement percentage (spleen cell; Table 1-3, sample 100 μg/mL): −2.6%; half-life [1]: < 60 min; AUC ([2]; n = 3): 1210 ng·h/mL; Cmax [2, 4]: 430 ng/mL; Tmax [2, 5]: 20 min

Question: For “BMJB012: PEG modification of Tα1, listed after BMJBT001 in Tables 1-2 and 2-2 (SDAAVDTSSEITTKDLKEKKEVVEEAEN; not fully specified; ends and bridges not checked; also: PEG conjugate, site not given here; UniProt P06454 2-29, looked up)”, which “Concentration of IFN-γ” value (spleen cell; Table 1-2, sample 1 μg/mL) is on record?
Answer: The value was 4224.7 ± 183.1 pg/mL.

Question: And the “Enhancement percentage” value (spleen cell; Table 1-2, sample 1 μg/mL)?
Answer: The value was “+29.7%”.

Question: And the “Concentration of IFN-γ” value (spleen cell; Table 1-2, sample 10 μg/mL)?
Answer: Its value is 3115.3 ± 377.1 pg/mL.

Question: What about the “Enhancement percentage” value (spleen cell; Table 1-2, sample 10 μg/mL) of the same substance?
Answer: The value was −4.4%.

Question: What about the “Concentration of IFN-γ” value (spleen cell; Table 1-2, sample 100 μg/mL) of the same substance?
Answer: Its value is 3277.7 ± 181.0 pg/mL.

Question: And the “Enhancement percentage” value (spleen cell; Table 1-2, sample 100 μg/mL)?
Answer: The value was “+0.6%”.

Question: And the AUC ([2]; n = 3)?
Answer: The AUC was 8150 ng·h/mL.

Question: What about the Cmax ([2]; n = 3) of the same substance?
Answer: Its Cmax is 348 ng/mL.

Question: What about the Tmax ([2]; n = 3) of the same substance?
Answer: Its Tmax is 720 min.

Question: And the “3H-TdR incorporation (cpm, x ± SD)” value ([3]; Table 2-2, sample 10 μg/mL)?
Answer: The value was 22772 ± 3222 cpm.

Question: What about the Enhancement percentage ([3]; Table 2-2, sample 10 μg/mL) of the same substance?
Answer: Its Enhancement percentage is “+95.6%”.

Question: And the “3H-TdR incorporation (cpm, x ± SD)” value ([3]; Table 2-2, sample 50 μg/mL)?
Answer: The value was 24066 ± 4004 cpm.

Question: What about the Enhancement percentage ([3]; Table 2-2, sample 50 μg/mL) of the same substance?
Answer: Its Enhancement percentage is “+106.7%”.

Question: What about the “3H-TdR incorporation (cpm, x ± SD)” value ([3]; Table 2-2, sample 100 μg/mL) of the same substance?
Answer: The value was 25176 ± 3656 cpm.

Question: What about the Enhancement percentage ([3]; Table 2-2, sample 100 μg/mL) of the same substance?
Answer: Its Enhancement percentage is “+116.3%”.

Question: For “Ac-SDAAVDTSSEITTKDLKEKKEVVCEAEN-OH [BMJBT007]”, which half-life [1] is on record?
Answer: Its half-life is 30 min.

Question: And the AUC ([2]; n = 3)?
Answer: Its AUC is 17900 ng·h/mL.

Question: What about the Cmax [2, 4] of the same substance?
Answer: The Cmax was 5990 ng/mL.

Question: And the Tmax [2, 5]?
Answer: The Tmax was 20 min.
